The values that follow come from US20240207243A1, “METHOD OF TREATING LAMINOPATHIES” (Eiger Biopharmaceuticals, Inc., priority 2019, published 2024).

Data set [1] can be described thus: Multiple-dose lonafarnib PK (100 mg twice daily) in loperamide study. In kind it is in vivo, human.
Data set [2] is described as follows: Food-effect evaluation of single-dose LNF. In kind it is in vivo, human. From the text: To evaluate the effect of a high-fat/high-calorie standard breakfast on the single-dose PK of LNF relative to a fasted state in healthy subjects (Group 2).
To evaluate the effect of a low-fat/low-calorie breakfast on the single-dose PK of LNF relative to a fasted state in healthy subjects (Group 2).
The effect of food (high-fat/high-calorie standard breakfast and low-fat/low-calorie breakfast) on the single-dose PK of LNF relative to the single-dose PK of LNF when administered under fasted conditions was evaluated.
• Period 1: Oral dose of LNF (75-mg capsule×1) on Day 1 (AM) under fed conditions (high-fat/high-calorie breakfast) • Period 2: Oral dose of LNF (75-mg capsule×1) on Day 4 (AM) under fed conditions (low-fat/low-calorie breakfast) • Period 3: Oral dose of LNF (75-mg capsule×1) on Day 7 (AM) under fasted conditions

The subject of data set [3] is CYP3A. In words: Co-administration of lonafarnib with ketoconazole, a strong CYP3A inhibitor. To be noted: co-administered with ketoconazole 200 mg twice daily. In kind it is in vivo, human.
The nature of data set [4]: Renal clearance and renal impairment study of lonafarnib. In kind it is in vivo, human. The text has this:
Lonafarnib is renally cleared <1% and no meaningful differences would be expected in subjects with renal impairment. […] Thus, lonafarnib is […].

In data set [5] the test system is CYP3A. In words: In vitro and in vivo CYP inhibition studies (CYP3A). The text has this: The following medicines are contraindicated when used with lonafarnib and unless otherwise noted, the contraindication is based on the potential for lonafarnib to inhibit metabolism of the co-administered medicinal product, resulting in increased exposure to the co-administered medicinal product and risk of clinically significant adverse effects.
(§1) Concomitant administration of lonafarnib with sensitive CYP3A or CYP2C19 substrates and strong or moderate CYP3A4 inhibitors or inducers, including herbal supplements can increase exposure of the co-administered medicinal product or lonafarnib resulting in risk of clinically significant adverse events or decrease exposure of lonafarnib, which may impact efficacy. Medicinal products that are sensitive CYP3A or CYP2C19 substrates, strong or moderate CYP3A inhibitors, or strong or moderate CYP3A inducers should be discontinued. If treatment cannot safety be discontinued or an alternative drug is not available, lonafarnib should be stopped during the course of treatment unless the benefit outweighs the possible risks.

Data set [6] deals with T1, CYP2C19 (Homo sapiens, UniProt P33261). In words: In vitro and in vivo CYP inhibition studies (CYP2C19).
T1 sequence (P33261 whole entry): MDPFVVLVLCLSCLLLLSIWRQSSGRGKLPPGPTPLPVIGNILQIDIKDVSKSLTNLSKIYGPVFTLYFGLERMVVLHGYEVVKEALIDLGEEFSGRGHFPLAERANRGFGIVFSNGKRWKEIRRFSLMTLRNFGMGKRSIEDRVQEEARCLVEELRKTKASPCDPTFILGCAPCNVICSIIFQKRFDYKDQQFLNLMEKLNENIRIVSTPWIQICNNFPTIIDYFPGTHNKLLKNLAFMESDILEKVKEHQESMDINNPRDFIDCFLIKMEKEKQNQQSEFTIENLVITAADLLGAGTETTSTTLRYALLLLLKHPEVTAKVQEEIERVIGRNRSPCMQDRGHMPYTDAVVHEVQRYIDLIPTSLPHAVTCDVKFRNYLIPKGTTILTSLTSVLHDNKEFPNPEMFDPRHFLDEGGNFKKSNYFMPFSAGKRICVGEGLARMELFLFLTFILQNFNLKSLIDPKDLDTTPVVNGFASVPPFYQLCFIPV
Description: as §1

The next data set has as its target CYP3A4 (Homo sapiens, UniProt P08684). In words: Metabolism of lonafarnib. From the text:
Lonafarnib has not been studied in subjects with hepatic impairment.

The conditions of data set [7]: in vivo. The procedure:
(§2) This study was conducted as an open-label, drug-drug interaction (DDI) study, a food-effect study with LNF alone, and a food-effect study with LNF+ritonavir (RTV). This study assessed the effects of multiple-dose LNF (75 mg twice daily×5 days) on the PK of single dose omeprazole (1×40-mg capsule) relative to omeprazole alone in.
Other sensitive CYP2C19 substrates should be monitored during concomitant administration with LNF. […] Extent of exposure was 6,200 ng·h/mL and the T1/2 was 5.57 hours. Trough LNF concentrations increased from Day 7 to Day 9 (AM). By Day 10 trough levels stabilized, indicating steady-state LNF levels were achieved over 5 days of consecutive dosing. […] There were no deaths, SAEs, or other significant AEs. All AEs were Grade 1 or 2.

For the next data set, the target named is P-gp (Homo sapiens, UniProt P08183). The following applies: in vivo.
P-gp, sequence (P08183 whole entry): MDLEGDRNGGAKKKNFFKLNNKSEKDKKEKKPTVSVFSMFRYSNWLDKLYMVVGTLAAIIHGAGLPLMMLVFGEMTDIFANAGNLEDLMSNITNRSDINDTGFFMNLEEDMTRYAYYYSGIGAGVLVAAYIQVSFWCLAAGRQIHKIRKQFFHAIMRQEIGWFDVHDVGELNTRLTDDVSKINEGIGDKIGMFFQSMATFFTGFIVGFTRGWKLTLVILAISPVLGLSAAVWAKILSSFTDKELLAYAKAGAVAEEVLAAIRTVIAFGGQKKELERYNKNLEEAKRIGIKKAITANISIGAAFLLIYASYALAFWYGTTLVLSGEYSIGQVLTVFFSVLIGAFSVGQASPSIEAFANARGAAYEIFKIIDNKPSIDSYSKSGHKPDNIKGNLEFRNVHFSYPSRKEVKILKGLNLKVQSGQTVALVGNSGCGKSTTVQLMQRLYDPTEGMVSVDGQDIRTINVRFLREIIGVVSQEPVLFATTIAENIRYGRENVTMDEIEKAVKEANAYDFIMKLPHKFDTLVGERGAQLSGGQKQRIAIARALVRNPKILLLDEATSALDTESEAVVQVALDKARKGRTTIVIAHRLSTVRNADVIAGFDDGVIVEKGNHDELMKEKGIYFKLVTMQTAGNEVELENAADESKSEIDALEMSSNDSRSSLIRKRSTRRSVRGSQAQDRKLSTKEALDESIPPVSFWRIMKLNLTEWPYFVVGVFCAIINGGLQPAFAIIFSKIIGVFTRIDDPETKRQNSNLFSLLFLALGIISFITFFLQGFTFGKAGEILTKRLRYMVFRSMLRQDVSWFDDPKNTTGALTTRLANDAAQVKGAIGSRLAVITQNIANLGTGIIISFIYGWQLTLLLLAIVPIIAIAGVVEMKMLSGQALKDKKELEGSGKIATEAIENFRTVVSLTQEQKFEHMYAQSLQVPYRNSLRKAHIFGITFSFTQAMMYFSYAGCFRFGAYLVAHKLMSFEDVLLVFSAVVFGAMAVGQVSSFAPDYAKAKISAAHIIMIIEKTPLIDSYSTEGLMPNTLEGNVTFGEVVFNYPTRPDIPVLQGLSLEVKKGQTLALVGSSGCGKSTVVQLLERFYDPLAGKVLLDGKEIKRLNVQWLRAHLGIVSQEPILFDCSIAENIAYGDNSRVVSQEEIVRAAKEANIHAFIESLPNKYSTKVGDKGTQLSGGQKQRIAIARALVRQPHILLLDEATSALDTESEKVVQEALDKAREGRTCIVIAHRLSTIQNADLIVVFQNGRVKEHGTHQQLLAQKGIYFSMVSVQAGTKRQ
In data set [8] the target is T1, CYP2C19. In words: Drug-drug interaction study: multiple-dose LNF on PK of single-dose omeprazole. In kind it is in vivo. More on the design: single-dose omeprazole, a sensitive CYP2C19 substrate; endogenous in cells; host or cells: study subjects in vivo. The following applies: for CYP2C19 inhibition in vivo (classification): lonafarnib 75 mg twice daily, omeprazole probe. The procedure: as §2

The test system of data set [9] is CYP3A.
Data set [10] is described as follows: Safety and tolerability in loperamide interaction study.
Data set [11] concerns CYP3A. In words: Drug-drug interaction study: multiple-dose lonafarnib on pharmacokinetics of single-dose midazolam. To be noted: human, in vivo, 100 mg. From the text:
(§3) An open-label, single-center, two-period, single-sequence, multi-drug-drug interaction study to evaluate the effects of multiple-dose lonafarnib on the pharmacokinetics of single-dose midazolam, a sensitive cytochrome p450-3a substrate.
(§4) Given the profound increase, sensitive substrates of CYP3A should be contraindicated with lonafarnib.

In the next data set the test system is cytochrome P450 CYP3A. The description is as above.
Description: as §3, §4

Where [12] appears, read: co-administered with lonafarnib vs midazolam alone.
[13] abbreviates: lonafarnib 75 mg twice daily co-administered.
Setting [14] is: single-dose omeprazole with multiple-dose LNF.
Setting [15] is: with multiple-dose LNF vs alone.

Entries after “also recorded” stand apart in the source; their conditions may differ.

CYP3A4, sequence (P08684 whole entry): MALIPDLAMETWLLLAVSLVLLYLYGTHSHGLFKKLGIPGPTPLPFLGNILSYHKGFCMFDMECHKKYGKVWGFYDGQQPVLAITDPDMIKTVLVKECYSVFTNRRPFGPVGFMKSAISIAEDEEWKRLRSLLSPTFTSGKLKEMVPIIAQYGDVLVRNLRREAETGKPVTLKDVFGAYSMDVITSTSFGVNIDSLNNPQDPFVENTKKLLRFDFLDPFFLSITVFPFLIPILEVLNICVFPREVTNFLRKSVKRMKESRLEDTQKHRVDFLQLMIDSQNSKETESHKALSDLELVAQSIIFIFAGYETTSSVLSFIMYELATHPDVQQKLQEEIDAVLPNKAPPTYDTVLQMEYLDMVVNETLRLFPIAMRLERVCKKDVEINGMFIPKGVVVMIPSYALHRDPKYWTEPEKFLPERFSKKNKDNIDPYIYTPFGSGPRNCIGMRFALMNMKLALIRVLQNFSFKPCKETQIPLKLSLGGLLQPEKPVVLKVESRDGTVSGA

By Cmax is commonly meant the highest concentration seen after dosing. In turn, `NC(=O)N1CCC(CC(=O)N2CCC([C@H]3c4ncc(Br)cc4CCc4cc(Cl)cc(Br)c43)CC2)CC1` [lonafarnib] registered a maximum concentration (Cmax) in data set [1] (human, in vivo, steady state) of 964 ng/mL. The half-life in [1] (human, in vivo, steady state, read-out: lonafarnib T1/2 (converted)) was 4.22 h. In addition, the “lonafarnib extent of exposure” value in data set [1] (steady state) was 6,940 ng·h/mL. Also, in data set [1] (trough lonafarnib concentrations), the “study day by which steady state was achieved” value is at most 8 days. The “LNF CL/F higher than fasted state” value in data set [2] (single 75 mg dose, 2 fed states vs fasted) is given as 33-35%. Further, the “decrease of LNF exposure (AUC0-t and AUC0-inf)” value in data set [2] (single 75 mg dose, fed states vs fasted) is 21-29%. In addition, the “LNF Cmax decrease relative to fasted state” value in [2] (single 75 mg dose, high-fat/high-calorie breakfast) is 55%; in data set [2] (single 75 mg dose, low-fat/low-calorie breakfast), 25%. Moreover, in [2] (single dose with high-fat/high-calorie or low-fat/low-calorie meal), the “LNF Tmax relative to fasted state” value is “delayed”. For the same molecule, the “lonafarnib AUC increase” value with CYP3A [3] was “approximately 5 fold”. Further, the “lonafarnib Cmax increase” value in the data set on CYP3A [3] is “approximately 3.6 fold”. This molecule also displayed a fraction renally cleared in data set [4] (in vivo) of under 1%. Further, the “lonafarnib exposure in renal impairment” value in data set [4] (subjects with severe renal impairment) is “exposures increase”. Moreover, the “CYP3A inhibition (classification)” value with CYP3A [5] is “potent CYP3A time-dependent and mechanism based inhibitor”. Further, the “CYP2C19 inhibition (classification)” value on CYP2C19 [6] is given as “moderate CYP2C19 inhibitor”. Further, the route of metabolism entry at CYP3A4 is recorded as “extensively metabolised via the cytochrome P450 enzyme system in the liver; also recorded: metabolized predominantly via CYP3A4 enzyme”. The adverse event incidence result in data set [7] is listed as “More subjects experienced AEs taking LNF”. Moreover, the “P-gp inhibition (classification)” value on P-gp is “weak P-gp inhibitor”. Besides, the “CYP2C19 inhibition in vivo (classification)” value on CYP2C19 [8] was “moderate CYP2C19 inhibitor”; on CYP2C19 [8] (listed as LNF) it was “direct/reversible inhibition of CYP2C19 in a moderate magnitude”.
Take `CN(C)C(=O)C(CCN1CCC(O)(c2ccc(Cl)cc2)CC1)(c1ccccc1)c1ccccc1` [loperamide]: the “increase of loperamide exposures (upper limit)” value in the data set on CYP3A [9] (coadministration of lonafarnib with loperamide) is “up to 4.6 fold”. Also, the “loperamide Cmax increase” value in the data set with CYP3A [9] (single-dose loperamide 2 mg after lonafarnib 100 mg twice daily 5 days vs loperamide alone) is recorded as about 3 fold. Moreover, the “loperamide Kel compared with loperamide alone” value in the data set with CYP3A [9] (with multiple-dose lonafarnib) is listed as “similar”. Also, the tolerability result in [10] (healthy subjects, lonafarnib 100 mg twice daily and loperamide 2 mg) is “generally tolerated lonafarnib and loperamide well”. Besides, the “GI adverse events vs lonafarnib alone” value in [10] (loperamide coadministered with lonafarnib) is reported as “fewer GI adverse events”.
Broadly, the Tmax is the time at which the peak concentration occurs. For `Cc1ncc2n1-c1ccc(Cl)cc1C(c1ccccc1F)=NC2` [midazolam], in the data set on CYP3A [11], the Tmax is 0.5 h. In the data set on cytochrome P450 CYP3A (setting [12]), the “midazolam AUC increase” value was “approximately 7 fold” and the “midazolam Cmax increase” value is “approximately 3 fold”. Further, the “change in midazolam Cmax, AUC0-t and AUC0-inf” value with cytochrome P450 CYP3A (single-dose midazolam with multiple-dose lonafarnib) is given as “increased statistically significantly”.
As for `COc1ccc2[nH]c([S+]([O-])Cc3ncc(C)c(OC)c3C)nc2c1` (stereo not shown) [omeprazole], at CYP2C19 [8] (coadministration with LNF), the “change in omeprazole CL/F” value is given as “decreased”, the “change in omeprazole Kel” value is recorded as “decreased” and the “change in omeprazole T1/2” value is recorded as “increased”. Further, at CYP2C19 [8] (setting [13]), the “omeprazole AUC increase” value is recorded as “approximately 1.6 fold” and the “omeprazole Cmax increase” value was “approximately 1.3 fold”. In addition, the “omeprazole Cmax increase” value at CYP2C19 [8] (single-dose omeprazole 40 mg with multiple-dose LNF 75 mg twice daily 5 days) is recorded as 44%. Besides, at CYP2C19 [8] (setting [14]), the “omeprazole AUC0-t and AUC0-inf increase” value was “approximately 2 fold”; the “omeprazole Tmax with vs without LNF” value was “approximately the same time”. Moreover, at CYP2C19 [8] (setting [15]), the “omeprazole AUC0-inf geometric mean ratio (CI)” value is listed as 1.600 (1.32, 1.94); the “omeprazole AUC0-t geometric mean ratio (CI)” value is 1.602 (1.34, 1.91); the “omeprazole Cmax geometric mean ratio (CI)” value is listed as 1.275 (1.01, 1.61).
